Experiments:
SmbA [1] = target: T1, SmbA (Caulobacter vibrioides, UniProt Q9A5E6, DEL198-215); assay: X-ray crystal structure at […] Å; ITC ([…] stoichiometry); type: binding
T1 construct: gene CC_2504; SmbA∆loop, partial loop 7 deletion (fragment 198–215 deleted), His6
T1 sequence (Q9A5E6 with tags, fused parts or gaps DEL198-215): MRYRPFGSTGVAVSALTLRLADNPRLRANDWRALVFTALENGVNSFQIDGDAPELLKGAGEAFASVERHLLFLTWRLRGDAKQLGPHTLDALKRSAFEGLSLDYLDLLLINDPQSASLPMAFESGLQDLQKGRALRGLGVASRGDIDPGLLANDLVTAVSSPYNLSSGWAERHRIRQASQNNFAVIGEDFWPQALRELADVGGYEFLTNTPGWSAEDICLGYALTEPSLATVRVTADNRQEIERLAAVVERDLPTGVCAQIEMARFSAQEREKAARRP

SmbA [2] = target: T2, SmbA (Caulobacter vibrioides, UniProt Q9A5E6); assay: ITC (apparent Kd); AUC sedimentation shift; type: binding
T2 construct: gene CC_2504; SmbAwt, His6
T2 sequence (Q9A5E6 1-296): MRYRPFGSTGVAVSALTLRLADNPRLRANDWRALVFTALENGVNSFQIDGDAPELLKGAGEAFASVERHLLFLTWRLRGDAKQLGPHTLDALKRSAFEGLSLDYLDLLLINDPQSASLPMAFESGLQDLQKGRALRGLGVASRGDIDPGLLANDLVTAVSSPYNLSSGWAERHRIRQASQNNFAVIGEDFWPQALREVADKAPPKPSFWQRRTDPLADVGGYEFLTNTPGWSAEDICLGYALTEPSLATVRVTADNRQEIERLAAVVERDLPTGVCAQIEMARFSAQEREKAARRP

## Nc1nc2c(ncn2[C@@H]2O[C@@H]3CO[P@](=O)(O)O[C@H]4[C@@H](O)[C@H](n5cnc6c(=O)[nH]c(N)nc65)O[C@@H]4CO[P@](=O)(O)O[C@H]3[C@H]2O)c(=O)[nH]1 [c-di-GMP]
SmbA [1]
  Kd: 1.8 µM
SmbA [2]
  Kd: 0.3 µM

Reference: article PMC9944927, “Mutant structure of metabolic switch protein in complex with monomeric c-di-GMP reveals a potential mechanism of protein-mediated ligand dimerization” (Scientific Reports, 2023)
